Results as given in patent US12221444B2, “5,6,7,7a-tetrahydrocyclopenta[f]pyrido[1,2-h][1,7]naphthyridin-11(4bH)-one compounds and methods of use” (GLAXOSMITHKLINE INTELLECTUAL, priority 2017, dated 2025).

What was measured:
HepAD38 cells = HepAD38 cells cytotoxicity assay (CellTiter-Glo Luminescent Cell Viability Assay); format: cell-based; conditions: 7 days total treatment, read-out: Cell tox (EC50, ηM)
Procedure: (§1) Example 36 HepAD38 Cells—HBsAg ELISA and Cytotoxicity Assays
(§2) HepAD38 cells are maintained in collagen-coated flasks in cell culture medium (DMEM/F12 containing 10% fetal bovine serum (FBS), GlutaMax-1, penicillin/streptomycin, non-essential amino acids, Na pyruvate, 250 μg/mL geneticin, and 1 μg/mL doxycycline). Compound solutions are prepared in DMSO and compound are serially diluted for final concentrations of 4000, 1000, 250, 62.5, 15.6, 3.91, 0.977, 0.244, 0.061, and 0.015 ηM. The cells are then trypsinized and the cells are plate at 10,000 cells per well. Incubate plates are incubated at 37° C., 5% CO2 for 4 days. Media is replaced with new media with compound treatment. The plates are then incubated at 37° C., 5% CO2 for an additional 3 days for a total treatment time of 7 days. For antiviral response, HBsAg was measured using the HBsAg ELISA kit (International Immuno-diagnostics) with instructions provided. 100 uL of cell media samples was used for ELISA. The absorbance was read on the Spectramax® 384 plate reader (Molecular Devices) at 450 nm. For cell toxicity, the cells were used for CellTiter-Glo® Luminescent Cell Viability Assay reagent (Promega). The luminescence was read on Envision Multilabel Reader (Perkin Elmer). The data was analyzed compared to the DMSO control. % inhibition=(1−(unknown/high control))*100
(§3) The average % inhibition values from duplicate assay plates are then plotted in GraphPad Prism to determine one IC value: Four-parameter logistic curve with equation Y=Bottom+(Top-Bottom)/(1+10^((Log IC50−X)*HillSlope)) pIC50=[…]

HBs antigens (HBsAg) = test: HepAD38 cells HBsAg ELISA; format: cell-based, Hepatitis B virus; conditions: read-out: HepAD38, HBsAg (EC50), 7 days total treatment, HBsAg ELISA of cell media
Procedure: as §1, §2, §3

[1] = HepAD38 cells cytotoxicity assay (CellTiter-Glo Luminescent Cell Viability Assay); format: cell-based; conditions: human, 7 days total treatment, read-out: Cell tox (EC50, ηM)
Procedure: as §1, §2, §3

Row | SMILES | EC50 (HepAD38 cells) [nM] | EC50 (HBs antigens (HBsAg)) [nM] | EC50 at 7 days [1] [nM]
1 | CC(C)C1(C)Cc2cc(OCC3CC3)c(Cl)nc2-c2cc(=O)c(C(=O)O)cn21 (single isomer, unassigned; isomer-2) [Example 27, (2-Chloro-3-(cyclopropylmethoxy)-6-isopropyl-6-methyl-10-oxo-5,10-dihydro-6H-pyrido[1,2-h][1,7]naphthyridine-9-carboxylic acid-Isomer-2] | > 4000 | > 100 | 
2 | CC(C)(C)C1Cc2cc(OCC3CC3)c(Cl)nc2-c2cc(=O)c(C(=O)O)cn21 (single isomer, unassigned; isomer 1) [Example 30-A, 6-(tert-Butyl)-2-chloro-3-(cyclopropylmethoxy)-10-oxo-6,10-dihydro-5H-pyrido[1,2-h][1,7]naphthyridine-9-carboxylic acid (isomer 1)] | > 4000 | < 1 | 
3 | COCCCOc1cc2c(nc1C(C)C)-c1cc(=O)c(C(=O)O)cn1[C@H](C(C)(C)C)C2 [Example 22, (S)-6-(tert-Butyl)-2-isopropyl-3-(3-methoxypropoxy)-10-oxo-6,10-dihydro-5H-pyrido[1,2-h][1,7]naphthyridine-9-carboxylic acid] |  | < 1 | > 4000
4 | COCCCOc1cc2c(nc1C1CC1)-c1cc(=O)c(C(=O)O)cn1C1C2CCC1(C)C (racemic) [Example 4, 2-Cyclopropyl-3-(3-methoxypropoxy)-7,7-dimethyl-11-oxo-4b,5,6,7,7a,11-hexahydrocyclopenta[f]pyrido[1,2-h][1,7]naphthyridine-10-carboxylic acid (racemic cis)] |  | < 1 | > 4000
5 | COCCCOc1cc2c(nc1Cl)-c1cc(=O)c(C(=O)O)cn1[C@@H]1C(C)(C)CCC21O (stereo partly drawn) [Example 6, (7aR)-2-Chloro-4b-hydroxy-3-(3-methoxypropoxy)-7,7-dimethyl-11-oxo-4b,5,6,7,7a,11-hexahydrocyclopenta[f]pyrido[1,2-h][1,7]naphthyridine-10-carboxylic acid] |  | 10 to 100 | > 4000
6 | Cc1cc2c(nc1C)CC(C(C)C)n1cc(C(=O)O)c(=O)cc1-2 (centres unmarked) [Example 33, 6-Isopropyl-2,3-dimethyl-10-oxo-5,10-dihydro-6H-pyrido[2,1-f][1,6]naphthyridine-9-carboxylic acid] |  | > 100 | > 4000
7 | COCCCOc1cc2c(nc1C1CC1)-c1cc(=O)c(C(=O)O)cn1C(C)(C(C)C)C2 (single isomer, unassigned; isomer-2) [Example 29, 2-Cyclopropyl-6-isopropyl-3-(3-methoxypropoxy)-6-methyl-10-oxo-5,10-dihydro-6H-pyrido[1,2-h][1,7]naphthyridine-9-carboxylic acid-Isomer-2] | > 4000 | 10 to 100 | 
8 | COCCCOc1cc2c(nc1C1CC1)-c1cc(=O)c(C(=O)O)cn1C(C)(C(C)C)C2 (single isomer, unassigned; isomer-1) [Example 28, 2-Cyclopropyl-6-isopropyl-3-(3-methoxypropoxy)-6-methyl-10-oxo-5,10-dihydro-6H-pyrido[1,2-h][1,7]naphthyridine-9-carboxylic acid-Isomer-1] |  | < 1 | > 4000
9 | CC(C)(C)C1Cc2cc(OCC3CC3)c(Cl)nc2-c2cc(=O)c(C(=O)O)cn21 (single isomer, unassigned; isomer 2) [Example 30-B, 6-(tert-Butyl)-2-chloro-3-(cyclopropylmethoxy)-10-oxo-6,10-dihydro-5H-pyrido[1,2-h][1,7]naphthyridine-9-carboxylic acid (isomer 2)] |  | > 100 | > 4000
10 | CC(C)(C)C1Cc2cc(OCC3CC3)c(Cl)nc2-c2cc(=O)c(C(=O)O)cn21 (racemic) [Example 30, 6-(tert-Butyl)-2-chloro-3-(cyclopropylmethoxy)-10-oxo-6,10-dihydro-5H-pyrido[1,2-h][1,7]naphthyridine-9-carboxylic acid] |  | 1 to 10 | > 4000
